In PMC8141534 (The Journal of Biological Chemistry, 2021):
Ends that are not written are not given here.

Assays:
isolated Rho–NTD monomer = test: interaction with isolated Rho-NTD monomer; assay type: binding, Escherichia coli; conditions: data not shown
E134K Rho = E134K Rho (Escherichia coli, UniProt P0AG30, E134K); assay type: biochemical; conditions: E134K Rho + peptide; λTR1 RNA; exponential decay fit; two to three measurements
E. coli MG1655 = assay type: cell-based, Escherichia coli; conditions: MG1655, pNL150, IPTG induction (100 μM), LB, 37 °C, 6 h; three independent colonies
Mycobacterium bovis BCG = assay type: cell-based
MG1655 gene expression = assay type: cell-based, Escherichia coli; conditions: qRT-PCR, relative to empty vector
WT Rho = WT Rho (Escherichia coli, UniProt P0AG30); assay type: biochemical
[1] = pH 5.5
P167L Rho [2] = molecular target: P167L Rho (Escherichia coli, UniProt P0AG30, P167L); test: biochemical; assay type: binding
E. coli Rho [3] = test: single round in vitro Rho-dependent transcription termination, T7A1-trpt′ template; assay type: biochemical, Escherichia coli
E134K Rho mutant = assay type: cell-based, Escherichia coli; conditions: IPTG induction
[4] = tested on: Rho mutants, R144E, R146E, and E148R; assay type: cell-based, Escherichia coli; conditions: 0 and 100 μM IPTG
[5] = tested on: Rho-dependent termination (trpt′ and trac terminators, lacZ reporter); assay type: cell-based, Escherichia coli; conditions: Fig. 3
E. coli Rho [6] = test: Rho-mediated RNA release from stalled (roadblocked) elongation complex; assay type: biochemical, Escherichia coli; conditions: for inhibition of Rho-induced RNA release from stalled EC (in words): Fig. 3E; for inhibition of Rho-induced RNA release from stalled EC (in words) / Frac. of RNA released (%): Fig. S4B
[7] = tested on: Mycobacterium smegmatis mc^2155; assay type: cell-based
E. coli Rho [8] = assay type: biochemical, Escherichia coli
[9] = tested on: Rho mutants, R66G and Y80C; assay type: cell-based, Escherichia coli; conditions: 50 μM IPTG
[10] = tested on: Rho proteins from pathogenic bacteria; assay type: biochemical; conditions: 35 μM peptide 33, 50 nM Rho, E. coli RNAP stalled EC, trpt′
[11] = tested on: Rho-dependent termination (galEP3 reporter); test: in vivo Rho-dependent termination, galEP3 reporter, MacConkey-galactose plates; assay type: cell-based, Escherichia coli; conditions: MC4100 galEP3, MacConkey-galactose plates, overexpression
CD spectrometry = assay type: physicochemical; conditions: 10 mM 2-(N-morpholino)ethanesulfonic acid pH 5.5, 190 to 270 nm, 25 °C
Rho = tested on: Rho; parameters: method as in 2 sources, one per row (each row's own in cited_ref): ref [23] = [23]; PMID 8466900; doi:10.1021/bi00065a007; 23 Zwiefka A. Kohn H. Widger W.R. Transcription termination factor rho: The site of Bicyclomycin inhibition in Escherichia coli Biochemistry 32 1993 3564 3570 8466900 10.1021/bi00065a007 ||| ref [24], [25], [26] = [24]; PMID 17565995; doi:10.1074/jbc.M702010200; 24 Gutiérrez P. Kozlov G. Gabrielli L. Elias D. Osborne M.J. Gallouzi I.E. Gehring K. Solution structure of YaeO, a rho-specific inhibitor of transcription termination J. Biol. Chem. 282 2007 23348 23 || [25]; PMID 21673658; doi:10.1038/emboj.2011.192; 25 Rabhi M. Espéli O. Schwartz A. Cayrol B. Rahmouni A.R. Arluison V. Boudvillain M. The Sm-like RNA chaperone Hfq mediates transcription antitermination at Rho-dependent terminators EMBO J. 30 2011 2 || [26]; PMID 31628950; doi:10.1016/j.jmb.2019.09.019; 26 Pal K. Yadav M. Jain S. Ghosh B. Sen R. Sen U. Vibrio cholerae YaeO is a structural homologue of RNA chaperone Hfq that inhibits rho-dependent transcription termination by dissociating its hexameri; conditions: cited from earlier work; for Rho antagonism (in words): ref [24], [25], [26]
P167L Rho [12] = molecular target: T1, P167L Rho (E. coli, UniProt P0AG30 1-419, P167L); test: pull-down; His-tagged peptides (30 μg peptide 16, 20 μg peptide 33) or His-tagged WT Psu (15 μg) bound to Ni-NTA beads at 4 °C for 12 to 16 h in 100 mM NaH2PO4 pH 8.0, 100 mM NaCl, 10 mM imidazole, 1 mM PMSF; 5 μg non-His-tagged P167L Rho added with 1 mM ATP, 37 °C, 20 min; wash 50 mM imidazole, elution 500 mM imidazole; SDS-Tricine PAGE; conditions: both partners purified
T1 construct: also called Rho P167L; non-His-tagged P167L Rho

[13] = ITC, 1 μM Rho P167L, 50 μM peptide, 1 mM ATP, pH 8.0, 25 °C, average of three experiments ± SD, Fig. 4B
[14] = Rho + NusG-CTD (5 μM) + ATP, average of three experiments ± SD, Fig. 6A
[15] = Rho + Poly dC34 (10 μM) + ATP, average of three experiments ± SD, Fig. 6A
[16] = Rho + PolyC (2 mM Poly(rC)), average of three experiments ± SD, Fig. 6A
[17] = Rho + ATP, average of three experiments ± SD, Fig. 6A
[18] = Rho bound to the single-stranded DNA and RNA

Molecule: MHHHHHHTPAQFIFFRVKVRNWHTSVSVKAWLFWRMREDFQPDTD [peptide 33]
- interaction with isolated Rho-NTD monomer (in words) (isolated Rho–NTD monomer): unable to interact with an isolated Rho–NTD monomer
- λ (average rate of ATP hydrolysis) (E134K Rho): 0.0155 min⁻¹
- growth defect upon expression (in words) (E. coli MG1655): severe growth defects
- growth phenotype upon streaking (in words) (Mycobacterium bovis BCG): very sick phenotype
- upregulation of tested genes (in words) (MG1655 gene expression): higher level of upregulation of these genes than that when its CTDΔ8 derivative was expressed
- reduction of rate of ATP hydrolysis (WT Rho; WT Rho): ~5.5 fold
- λ (average rate of ATP hydrolysis) (WT Rho; WT Rho + peptide, λTR1 RNA, exponential decay fit, two to three measurements): 0.009 min⁻¹
- solubility at mildly acidic pH (in words) [1]: properly soluble at a mildly acidic pH
- Kd (P167L Rho [2]; [13]): 16.6 ± 3 nM
- Kd (P167L Rho [2]; P167L Rho, ITC): 17 nM
- Kd (P167L Rho [2]; [14]): 26.5 ± 0.3 nM
- Kd (P167L Rho [2]; [15]): 255 ± 100 nM
- Kd (P167L Rho [2]; [16]): 164 ± 48 nM
- n (P167L Rho [2]; [17]): 3.75 ± 0.2
- ΔG (P167L Rho [2]; [17]): -11 ± 0.1 kcal/mol
- ΔH (P167L Rho [2]; [17]): -28 ± 0.9 kcal/mol
- ΔS (P167L Rho [2]; [17]): -57 ± 3 cal/mol.K
- n (P167L Rho [2]; [14]): 3.1 ± 0.1
- ΔG (P167L Rho [2]; [14]): -10.3 ± 0.02 kcal/mol
- ΔH (P167L Rho [2]; [14]): -26 ± 3 kcal/mol
- ΔS (P167L Rho [2]; [14]): -52 ± 10 cal/mol.K
- n (P167L Rho [2]; [15]): 1.9 ± 0.3
- ΔG (P167L Rho [2]; [15]): -9.1 ± 0.3 kcal/mol
- ΔH (P167L Rho [2]; [15]): -23.7 ± 4 kcal/mol
- ΔS (P167L Rho [2]; [15]): -49.00 ± 13 cal/mol.K
- n (P167L Rho [2]; [16]): 2.9 ± 0.1
- ΔG (P167L Rho [2]; [16]): -9.3 ± 0.2 kcal/mol
- ΔH (P167L Rho [2]; [16]): -27.1 ± 3.5 kcal/mol
- ΔS (P167L Rho [2]; [16]): -59.6 ± 12.3 cal/mol.K
- binding stoichiometry (in words) (P167L Rho [2]; [18]): also reduced
- thermodynamic parameters (in words) (P167L Rho [2]; [18]): not changed significantly
- affinity for Rho (in words) (P167L Rho [2]; in the presence of NusG CTD): not affected significantly
- reduction of affinity for Rho (P167L Rho [2]; in the presence of polyC): 10 fold
- reduction of affinity for Rho (P167L Rho [2]; in the presence of polydC34): 15 fold
- effect on transcription when Rho was absent (in words) (E. coli Rho [3]; no Rho): did not have any effect on transcription when Rho was absent
- effect on growth of E134K Rho compared with WT (in words) (E134K Rho mutant): less severe effect on the growth of the E134K Rho than its WT counterpart
- peptide-induced growth defect with Rho mutants (in words) [4]: could not prevent the peptide-induced growth defect
- in vivo antitermination / Rho inhibitory properties (in words) [5]: strong in vivo antitermination of Rho-dependent termination
- inhibition of Rho-induced RNA release from stalled EC (in words) (E. coli Rho [6]): significantly inhibited
- inhibition of Rho-induced RNA release from stalled EC (in words) (E. coli Rho [6]; listed as Peptide 33): exerted its action at a lower concentration than peptide 16
- concentration for maximal effects (E. coli Rho [6]; in general, varied between different lots): ≥ 50 µM
- Frac. of RNA released (%) (E. coli Rho [6]; peptide 25, Rho 50 nM): 31± 0.4%
- Frac. of RNA released (%) (E. coli Rho [6]; peptide 35, Rho 50 nM): 16 ± 0.4%
- Frac. of RNA released (%) (E. coli Rho [6]; peptide 50, Rho 50 nM): 13 ± 0.4%
- growth phenotype upon streaking (in words) [7]: very sick phenotype
- transformants obtained (in words) [7]: fewer colonies than those obtained from the transformation with the empty vector
- inhibition of ATPase activity of E. coli Rho (in words) (E. coli Rho [8]): more efficient than peptide 16 in inhibiting this Rho function
- effect on growth of Rho mutants compared with WT (in words) [9]: very severe
- inhibition of RNA release by pathogenic Rho proteins (in words) [10]: could inhibit the termination process by all the different Rho proteins
- colour of colonies, galEP3 reporter (in words) [11]: appearance of red colonies
- secondary structure by CD (in words) (CD spectrometry): predominantly α-helical

Molecule: Hfq: PBS-binding Rho antagonist
- Rho antagonism (in words) (Rho): PBS-binding Rho antagonists

Molecule: MHHHHHHTPAQGMIFSVKVRTGITSVSVKAWLFWRMREDFQPDTD [peptide 16]
- growth defect upon expression (in words) (E. coli MG1655): severe growth defects
- solubility at mildly acidic pH (in words) [1]: properly soluble at a mildly acidic pH
- Kd (P167L Rho [2]; [13]): 214 ± 113 nM
- binding affinity and stoichiometry (in words) (P167L Rho [2]; compared with peptide 33, ITC): binds with much weaker affinity and with significantly reduced stoichiometry
- effect in transcription termination assay with Rho (in words) (E. coli Rho [3]; data not shown): much less
- peptide-induced growth defect with Rho mutants (in words) [4]: could not prevent the peptide-induced growth defect
- in vivo antitermination / Rho inhibitory properties (in words) [5]: strong in vivo antitermination of Rho-dependent termination
- inhibition of Rho-induced RNA release from stalled EC (in words) (E. coli Rho [6]): significantly inhibited
- inhibition of Rho-induced RNA release from stalled EC (in words) (E. coli Rho [6]; listed as Peptide 16): could efficiently inhibit the RNA release of Rho only when stalled EC was used
- Frac. of RNA released (%) (E. coli Rho [6]; peptide 25, Rho 50 nM): 38 ± 2%
- Frac. of RNA released (%) (E. coli Rho [6]; peptide 50, Rho 50 nM): 22 ± 0.8%
- Frac. of RNA released (%) (E. coli Rho [6]; peptide 100, Rho 50 nM): 13 ± 2%
- colour of colonies, galEP3 reporter (in words) [11]: appearance of red colonies
- secondary structure by CD (in words) (CD spectrometry): predominantly α-helical

Molecule: C=C1CCO[C@]2([C@@H](O)[C@@](C)(O)CO)NC(=O)[C@@]1(O)NC2=O [bicyclomycin]
- Rho inhibition (in words) (Rho; ref [23]): directly binds near the ATP-binding sites and inhibits Rho functions

B1: YaeO: PBS-binding Rho antagonist (protein, UniProt P0AFW8 1-84, looked up)
Protein rof: MNDTYQPINCDDYDNLELACQHHLMLTLELKDGEKLQAKASDLVSRKNVEYLVVEAAGETRELRLDKITSFSHPEIGTVVVSES
- Rho antagonism (in words) (Rho): PBS-binding Rho antagonists

B2: His-tagged WT Psu (polarity suppression protein, bacteriophage P4 capsid protein) (natural protein)
chain: MESTALQQAFDTCQNNKAAWLQRKNELAAAEQEYLRLLSGEGRNVSRLDELRNIIEVRKWQVNQAAGRYIRSHEAVQHISIRDRLNDFMQQHGTALAAALAPELMGYSELTAIARNCAIQRATDALREALLSWLAKGEKINYSAQDSDILTTIGFRPDVASVDDSREKFTPAQNMIFSRKSAQLASRQSV
- binding result (P167L Rho [12]): binds
